# Measured values reported in patent publication US10473645B2, “Methods for identifying a receptor for a ligand and uses thereof” (UNIVERSITE DE GENEVE, priority 2014, dated 2019).
# Experiments:
# [1] = biological target: T1, Olfr16 (Mus musculus, UniProt Q62007); set-up: host or cells: dissociated neurons; details: dissociated neurons; previously shown; read-out: EC50 as agonist of Olfr16; cited from earlier work
# [2] = biological target: T1, Olfr16; assay: OR transcript level by RT-qPCR after in vivo odorant exposure; set-up: from tissue; host or cells: main olfactory epithelium of exposed mice; details: 5% odorant, 5 hours
# Description: (§1) In vivo exposure to odorant: Starting 48 h before experiments, mice were habituated to pure DMSO on a cotton ball. 200 μl were pipetted directly onto the cotton and placed in the cage, replacing any cotton that was already in the cage for nest-making purposes.
# (§2) On the day of the experiment, mice receiving odorants were transferred to a different room, where they were exposed to a cotton ball on which 200 μl of odorant diluted in pure DMSO were deposited. Exposures started in the morning between 8 and 10 am (that is two hours after lights were on) and mice were killed and dissected between 1 and 3 pm. […] If a number of different odorants were tested in the same experiment, a different overpressurized room would always be used for each odorant to avoid odor cross-contamination.
# (§3) After odorant exposure, mice were killed by cervical dislocation and immediately decapitated. […]
# (§4) RNA concentrations were determined using an Amersham Ultrospec® 3100 Pro spectrophotometer, and RNA quality was evaluated with an Agilent Technologies 2100 Bioanalyzer®. […]
# (§5) qPCR Ct values were analyzed using an in-house developed Microsoft Excel® macro file. […] Ct values were converted to quantities relative to the maximum for each given gene. Selected reference genes were then analyzed for variance using the geNorm algorithm. […]
# [3] = biological target: T2, Olfr2 (Mus musculus, UniProt Q9QWU6); assay: as above; details: 5% odorant, 5 hours
# T2 construct: host or cells: HEK cells
# Description: as §1, §2, §3, §4, §5
# [4] = biological target: T2, Olfr2; details: HEK cells; previously shown; read-out: EC50 as agonist of Olfr2; cited from earlier work
# [5] = system: Olfr609; assay: OR transcript level by RT-qPCR after in vivo odorant exposure; set-up: species or system mouse; details: 5% odorant, 5 hours
# Description: as §1, §2, §3, §4, §5
# [6] = system: Olfr609; details: HEK cells; previously shown; read-out: EC50 as agonist of Olfr609; cited from earlier work
# [7] = biological target: T3, Olfr556 (Mus musculus, UniProt B2RRG2); assay: OR transcript level by RT-qPCR after in vivo odorant exposure; set-up: from tissue; host or cells: main olfactory epithelium of exposed mice; details: olfactory stimulation during 48 hours, RT-qPCR
# T3 sequence (B2RRG2 1-324): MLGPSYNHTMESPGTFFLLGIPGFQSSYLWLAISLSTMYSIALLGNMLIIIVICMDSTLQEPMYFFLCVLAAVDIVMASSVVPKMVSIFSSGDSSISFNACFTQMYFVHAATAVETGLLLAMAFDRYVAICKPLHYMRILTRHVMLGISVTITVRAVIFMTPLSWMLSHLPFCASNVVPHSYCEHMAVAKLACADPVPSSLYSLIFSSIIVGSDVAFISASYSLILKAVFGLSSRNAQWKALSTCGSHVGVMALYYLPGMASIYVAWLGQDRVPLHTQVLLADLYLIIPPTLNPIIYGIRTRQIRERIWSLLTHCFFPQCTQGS
# Description: as §1
# as §2, with “Exposures started in the morning between 8 and 10 am (that is two hours after lights were on) and mice were killed and dissected between 1 and 3 pm.” left out
# After odorant exposure, mice were killed by cervical dislocation and immediately decapitated. The main olfactory epithelia (MOE), were harvested in their entirety and transferred to a tube containing 600 μl of lysis buffer and β-mercaptoethanol (RNAeasy kit, Qiagen, following the manufacturer protocol) and a 0.5 cm diameter steel ball, and then put on ice. Samples were then homogenized using a FastPrep®-24 instrument (MP Biomedicals) at 6 m/s for 30 s and left on ice. RNA extraction was performed on all samples in parallel using the Qiagen RNeasy Mini® kit following the manufacturer's instructions. Two DNase treatments were performed on all samples: first using the Qiagen RNase-Free DNase Set® and then using the Life Technologies Ambion DNase I® kit. RNA samples were then aliquoted and stored at −80° C.
# RNA concentrations were determined using an Amersham Ultrospec® 3100 Pro spectrophotometer, and RNA quality was evaluated with an Agilent Technologies 2100 Bioanalyzer®. Each reverse transcription was performed with 0.5 μg RNA using the Takara Primescript® kit, in a final volume of 10 μl. Primers for reverse transcription were equal mixtures of poly-T nucleotides and random hexamers. Negative controls (omitting the reverse transcriptase enzyme) were performed for each sample. 1/14th of the cDNA preparation was used for each triplicated qPCR reaction.
# qPCR Ct values were analyzed using an in-house developed Microsoft Excel® macro file. Triplicate values were compared and outliers (values with a difference higher than 0.5 Ct to their nearest neighbor) were discarded. The number of conditions with an outlying value was always less than 10% of the total number of conditions. Ct values were converted to quantities relative to the maximum for each given gene. Selected reference genes were then analyzed for variance using the geNorm algorithm. All values were normalized with the olfactory tissue-specific genes Omp and Adcy3. β-Actin was used as a non-tissue-specific reference gene to control for differences in dissection between samples. […]
# [8] = biological target: T4, TAAR4 (Mus musculus, UniProt Q5QD15); details: Zhang et al, 2013; cited from earlier work
# T4 construct: from tissue; host or cells: main olfactory epithelium of living mice
# [9] = biological target: T5, TAAR6 (Mus musculus, UniProt Q5QD13); assay: TAAR transcript level by RT-qPCR after in vivo exposure; details: olfactory stimulation during 48 hours
# T5 construct: from tissue; host or cells: main olfactory epithelium of living mice
# Description: as §1, §2
# (§6) After odorant exposure, mice were killed by cervical dislocation and immediately decapitated. The main olfactory epithelia (MOE), were harvested in their entirety and transferred to a tube containing 600 μl of lysis buffer and β-mercaptoethanol (RNAeasy kit, Qiagen, following the manufacturer protocol) and a 0.5 cm diameter steel ball, and then put on ice. Samples were then homogenized using a FastPrep®-24 instrument (MP Biomedicals) at 6 m/s for 30 s and left on ice. […]
# as §4, §5
# (§7) Transcript levels of olfactory receptor gene were evaluated following olfactory stimulation during 48 hours by beta-phenylethylamine. Olfactory receptor gene transcript levels were evaluated by RT-qPCR for each receptor gene, and the ratios between the values obtained in exposed versus control mice are shown in FIG. 6. […]
# [10] = biological target: T4, TAAR4; assay: as above; details: olfactory stimulation during 48 hours
# Description: as §1, §2, §6, §4, §5, §7
# [11] = biological target: T6, TAAR3 (Mus musculus, UniProt Q5QD16); assay: as above; details: olfactory stimulation during 48 hours
# Description: as §1, §2, §6, §4, §5, §7
# [12] = biological target: T6, TAAR3; details: Zhang et al, 2013; cited from earlier work
# [13] = system: Olfr171; assay: OR transcripts by qPCR after ex vivo exposure of olfactory epithelia; type: cell-based, Mouse; details: 50 μM, 2 hours, olfactory epithelia in vitro in ACSF medium
# Description: (§8) In vitro exposure to odorant: The olfactory sensory mucosa of a live or recently dead vertebrate is collected and maintained alive in vitro. Sensory neurons are either left untouched or are dissociated. The exposure to the odorants is then performed in vitro, in a tube, in the liquid phase. The explants/neurons are kept alive in a physiological medium (such as 145 mM NaCl, 5 mM KCl, 1 mM CaCl2, 1 mM MgCl2, 10 mM HEPES, 10 mM glucose). […] The potential modulations of mRNA levels between the two populations are then evaluated, by qPCR (FIG. 2), RNAseq or other techniques, to identify the receptors that have been activated.
# (§9) Mouse olfactory epithelia were collected and kept in vitro in ACSF medium where they were exposed for 2 hours to 50 μM ethyl isobutyrate. The number of transcripts for Olfr genes was then evaluated by qPCR, and those of Olfr167 and Olfr171 were both repressed after agonist exposure. Ethyl isobutyrate was previously shown to be an agonist for Olfr167 and Olfr171.
# [14] = system: control odorant receptor genes (8 genes); assay: OR transcript level by RT-qPCR after in vivo odorant exposure; set-up: species or system mouse; details: 5% odorant for 5 hours; margin of ±20% relative to control mice not significant
# Description: as §1
# (§10) On the day of the experiment, mice receiving odorants were transferred to a different room, where they were exposed to a cotton ball on which 200 μl of odorant diluted in pure DMSO were deposited. Exposures started in the morning between 8 and 10 am (that is two hours after lights were on) and mice were killed and dissected between 1 and 3 pm. […]
# as §4, §5
# (§11) Adult C57BL/6 mice were exposed to 5% ethyl isobutyrate for 5 hours, and the level of transcripts of odorant receptors' genes were measured by RT-qPCR on extracts of olfactory epithelia from these mice, as described in the materials and methods section.
# [15] = system: Olfr171; assay: as above; set-up: species or system mouse; details: 5% odorant for 5 hours, sensory neuroepithelium, n=7 mice
# Description: as §1, §10, §4, §5, §11
# [16] = system: Olfr171-expressing neurons; assay: pS6 immunolabeling with OR in situ hybridization after odorant exposure; set-up: species or system mouse; details: 5% odorant, 60 minutes, in vivo
# Description: (§12) In order to independently validate the identity of an acetophenone receptor obtained with the RNAseq approach, the potential colocalization following acetophenone exposure of a neuronal activity marker (the phosphorylated ribosomal protein S6 (pS6) (Knight et al., 2012, Cell, 151, 1126-1137) and specific olfactory receptors were evaluated. To this aim, in-situ hybridizations were performed on sections of olfactory tissue with probes targeting receptor mRNAs followed by immunolabeling of pS6. The probes used were directed against the transcripts of most of the ORs determined as responsive including Olfr983 transcripts (encoding a known acetophenone receptor), Olfr171 transcripts (encoding a known ethyl isobutyrate receptor), and Olfr145 transcripts, encoding a newly identified receptor by RNAseq. Before analysis, mice were exposed to either 5% acetophenone, 5% ethyl isobutyrate, or a negative control condition for 60 minutes. […] 66% (Olfr983) and 70% (Olfr145) of the neurons were positive for pS6 after acetophenone exposure, while only 11% of the neurons expressing Olfr171 were positive for pS6 after exposure to this compound.
# [17] = biological target: T7, Olfr167 (Mus musculus, UniProt Q8VGJ5); assay: OR transcripts by qPCR after ex vivo exposure of olfactory epithelia; type: cell-based; details: 50 μM, 2 hours, olfactory epithelia in vitro in ACSF medium
# T7 construct: from tissue; host or cells: main olfactory epithelium of C57BL/6 mice (in vivo exposure) or explanted mouse olfactory epithelia (ex vivo)
# T7 sequence (Q8VGJ5 1-312): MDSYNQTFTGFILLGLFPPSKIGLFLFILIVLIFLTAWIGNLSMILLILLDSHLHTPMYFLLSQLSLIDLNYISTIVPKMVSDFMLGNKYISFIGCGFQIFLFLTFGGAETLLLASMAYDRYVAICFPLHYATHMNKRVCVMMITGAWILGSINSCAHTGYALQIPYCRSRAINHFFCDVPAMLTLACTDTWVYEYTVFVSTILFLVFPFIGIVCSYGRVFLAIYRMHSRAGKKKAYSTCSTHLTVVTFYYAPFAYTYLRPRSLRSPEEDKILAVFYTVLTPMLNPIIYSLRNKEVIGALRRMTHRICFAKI
# Description: as §8, §9
# [18] = biological target: T7, Olfr167; details: cited from earlier work
# [19] = system: Olfr171; details: cited from earlier work
# [20] = biological target: T7, Olfr167; assay: OR transcript level by RT-qPCR after in vivo odorant exposure; details: 5% odorant for 5 hours, sensory neuroepithelium, n=7 mice
# Description: as §1, §10, §4, §5, §11
# [21] = system: neurons expressing Olfr983; assay: pS6 immunolabeling with OR in situ hybridization after odorant exposure; type: in vivo, mouse; details: 5% odorant, 60 minutes, in vivo
# Description: as §12
# [22] = system: neurons expressing Olfr145; assay: as above; type: in vivo, mouse; details: 5% odorant, 60 minutes, in vivo
# Description: as §12
# T6 sequence (Q5QD16 whole entry): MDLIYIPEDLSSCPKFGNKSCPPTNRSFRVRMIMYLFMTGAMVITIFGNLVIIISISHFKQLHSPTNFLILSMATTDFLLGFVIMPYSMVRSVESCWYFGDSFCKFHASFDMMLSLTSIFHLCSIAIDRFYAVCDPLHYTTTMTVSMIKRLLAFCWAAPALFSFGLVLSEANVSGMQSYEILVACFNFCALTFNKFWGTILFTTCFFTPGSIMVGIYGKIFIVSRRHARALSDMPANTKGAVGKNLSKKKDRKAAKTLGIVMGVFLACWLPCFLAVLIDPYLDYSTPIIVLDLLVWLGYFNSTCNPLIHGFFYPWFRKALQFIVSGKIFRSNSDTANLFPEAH
# T4 sequence (Q5QD15 whole entry): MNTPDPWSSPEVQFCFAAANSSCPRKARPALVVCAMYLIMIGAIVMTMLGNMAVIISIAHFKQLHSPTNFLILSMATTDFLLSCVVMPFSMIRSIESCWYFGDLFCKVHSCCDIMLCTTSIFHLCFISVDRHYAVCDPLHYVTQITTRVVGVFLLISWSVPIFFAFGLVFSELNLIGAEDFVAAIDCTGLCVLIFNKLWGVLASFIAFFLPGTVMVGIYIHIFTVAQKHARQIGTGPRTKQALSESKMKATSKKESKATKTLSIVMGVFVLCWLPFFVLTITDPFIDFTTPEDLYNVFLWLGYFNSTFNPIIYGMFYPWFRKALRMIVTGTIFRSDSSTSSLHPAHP
# T1 sequence (Q62007 whole entry): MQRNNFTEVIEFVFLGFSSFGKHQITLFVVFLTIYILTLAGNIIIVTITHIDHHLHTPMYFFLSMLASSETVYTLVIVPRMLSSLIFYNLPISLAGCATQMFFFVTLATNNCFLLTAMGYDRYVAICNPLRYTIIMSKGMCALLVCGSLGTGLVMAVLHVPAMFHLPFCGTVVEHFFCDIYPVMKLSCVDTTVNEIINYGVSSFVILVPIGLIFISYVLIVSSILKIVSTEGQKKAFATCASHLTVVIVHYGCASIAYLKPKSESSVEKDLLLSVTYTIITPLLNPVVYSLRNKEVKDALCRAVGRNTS
# T2 sequence (Q9QWU6 1-327): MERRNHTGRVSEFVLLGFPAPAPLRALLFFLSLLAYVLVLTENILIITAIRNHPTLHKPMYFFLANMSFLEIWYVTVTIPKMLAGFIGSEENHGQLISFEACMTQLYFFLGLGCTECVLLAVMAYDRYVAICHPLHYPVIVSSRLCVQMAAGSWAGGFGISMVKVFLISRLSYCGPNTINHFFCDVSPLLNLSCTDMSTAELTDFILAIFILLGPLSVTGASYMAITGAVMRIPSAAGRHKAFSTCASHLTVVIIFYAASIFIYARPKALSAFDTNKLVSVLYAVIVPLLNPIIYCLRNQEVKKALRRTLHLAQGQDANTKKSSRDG
# T5 sequence (Q5QD13 whole entry): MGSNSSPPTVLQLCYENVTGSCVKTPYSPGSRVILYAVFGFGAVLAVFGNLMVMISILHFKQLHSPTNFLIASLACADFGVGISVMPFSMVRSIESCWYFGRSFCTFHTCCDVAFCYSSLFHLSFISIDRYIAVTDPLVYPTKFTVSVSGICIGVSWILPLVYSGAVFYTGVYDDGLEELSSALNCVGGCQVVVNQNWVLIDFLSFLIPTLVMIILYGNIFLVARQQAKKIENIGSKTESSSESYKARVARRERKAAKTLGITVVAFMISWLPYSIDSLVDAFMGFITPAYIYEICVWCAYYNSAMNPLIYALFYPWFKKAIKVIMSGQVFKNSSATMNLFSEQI
compound,measurement,setting,value
CC(C)(O)CCCC1=CCC(C=O)CC1 (stereo not shown) [lyral],EC50,[1],< 50 µM
same,Olfr16 mRNA level relative to unexposed controls,[2],decrease
CCCCCCC=O [heptanal],Olfr2 mRNA level relative to unexposed controls,[3],decrease
same,EC50,[4],< 50 µM
COc1cc(C(=O)O)ccc1O [vanillic acid],Olfr609 mRNA level relative to unexposed controls,[5],decrease
same,EC50,[6],< 50 µM
NCCc1ccccc1 [beta-phenylethylamine],Olfr556 transcript level (negative control),[7],not affected
same,TAAR4 response previously shown,[8],respond
same,TAAR6 transcript level (negative control),[9],not affected
same,number of transcripts encoding TAAR4,[10],decrease
same,number of transcripts encoding TAAR3,[11],decrease
same,TAAR3 response previously shown,[12],respond
CCOC(=O)C(C)C [ethyl isobutyrate],number of Olfr171 transcripts after agonist exposure,[13],repressed
same,concentration of control odorant receptor gene transcripts,[14],none of the control odorant receptor genes (8 genes) was significantly affected
same,"mRNA concentration of Olfr171, decreased, relative to unexposed controls",[15],74%
same,fraction of Olfr171-expressing neurons positive for pS6,[16],67%
same,number of Olfr167 transcripts after agonist exposure,[17],repressed
same,action on Olfr167 previously shown,[18],agonist
same,action on Olfr171 previously shown,[19],agonist
same,"mRNA concentration of Olfr167, decreased, relative to unexposed controls",[20],47%
same,fraction of Olfr983-expressing neurons positive for pS6,[21],12%
same,fraction of Olfr145-expressing neurons positive for pS6,[22],28%
